These results are taken from patent US9073940B2, “Tricyclic pyrazol amine derivatives” (MERCK SERONO SA, priority 2009, dated 2015).

Counter-ions that a name gives are not always drawn.

For one assay, the system named is 4 PI3K isoforms (Human recombinant GST-PI3K). Description: PI3K scintillation proximity assay, best IC50 obtained with the four isoforms (alpha, beta, delta, gamma). Type of assay: biochemical. The following applies: best IC50 obtained with the four isoforms of PI3K; read-out: Best potency measured on the 4 PI3K isoforms. Background: SPA uses beads or plates that emit light when radiolabelled molecules are held near them.
`CC(C)Cn1nc(C(=O)N2CCOCC2)c2c1-c1ccccc1S(=O)(=O)C2` [Example 50, 1-isobutyl-3-(morpholin-4-ylcarbonyl)-1,4-dihydrothiochromeno[4,3-c]pyrazole 5,5-dioxide]: the IC50 was 960 nM. For the compound `COc1ccc2c(c1)S(=O)(=O)Cc1c(C(=O)N3CCOCC3)nn([C@H]3CCCN(CCN4CCOCC4)C3)c1-2` (single isomer, unassigned) [Example 383, 7-methoxy-3-(morpholin-4-ylcarbonyl)-1-[1-(2-morpholin-4-ylethyl)piperidin-3-yl]-1,4-dihydrothiochromeno[4,3-c]pyrazole 5,5-dioxide], the IC50 is 24 nM. The same measure, in the same setting: to “3-(Morpholin-4-ylcarbonyl)-1-phenyl-4H- imidazo[5,1-c][1,4]benzothiazine 5,5-dioxide [Example 486]” belongs 2740 nM; to `O=C(c1nn(-c2ccc3[nH]ncc3c2)c2c1CS(=O)(=O)c1ccccc1-2)N1CCOCC1` [Example 203, 1-(1H-Indazol-5-yl)-3-(morpholin-4-ylcarbonyl)-1,4-dihydrothiochromeno[4,3-c]pyrazole 5,5-dioxide], 1640 nM; to `O=C(c1nn([C@H]2CCCN(CCN3CCOCC3)C2)c2c1CS(=O)(=O)c1c(Cl)cccc1-2)N1CCOCC1` (single isomer, unassigned) [Example 386, 6-chloro-3-(morpholin-4-ylcarbonyl)-1-[1-(2-morpholin-4-ylethyl)piperidin-3-yl]-1,4-dihydrothiochromeno[4,3-c]pyrazole 5,5-dioxide], 30 nM.

As to `O=C(c1nn(C2CCCNC2)c2c1CS(=O)(=O)c1ccccc1-2)N1CCOCC1` (stereo not drawn) [Example 75], the IC50 worked out at 3010 nM.

On to `COc1ccc2c(c1)S(=O)(=O)Cc1c(C(=O)N3CCOCC3)nn(-c3ccccc3)c1-2` [Example 5, 7-methoxy-3-(morpholin-4-ylcarbonyl)-1-phenyl-1,4-dihydrothiochromeno[4,3-c]pyrazole 5,5-dioxide], for which the IC50 worked out at 349 nM. Still for that read-out and setting: the value for `COCCn1nc(C(=O)N2CCOCC2)c2c1-c1ccccc1S(=O)(=O)C2` [Example 53, 1-(2-methoxyethyl)-3-(morpholin-4-ylcarbonyl)-1,4-dihydrothiochromeno[4,3-c]pyrazole 5,5-dioxide] was 1290 nM; that for `O=C(c1nn([C@@H]2CCN(C3CCOCC3)C2)c2c1CS(=O)(=O)c1c(F)cccc1-2)N1CCOCC1` (single isomer, unassigned) [Example 353, 6-fluoro-3-(morpholin-4-ylcarbonyl)-1-[1-(tetrahydro-2H-pyran-4-yl)pyrrolidin-3-yl]-1,4-dihydrothiochromeno[4,3-c]pyrazole 5,5-dioxide hydrochloride salt] was 2040 nM. The same measure, in the same setting: to `COCCN1CCC[C@H](n2nc(C(=O)N3CCOCC3)c3c2-c2cccc(F)c2S(=O)(=O)C3)C1` (single isomer, unassigned) [Example 434, 6-Fluoro-1-[1-(2-methoxyethyl)piperidin-3-yl]-3-(morpholin-4-ylcarbonyl)-1,4-dihydrothiochromeno[4,3-c]pyrazole 5,5-dioxide] belongs 31 nM.

Turning to `O=C(c1nn(C2CCCN(CCn3cccn3)C2)c2c1CS(=O)(=O)c1ccccc1-2)N1CCOCC1` (stereo not drawn) [Example 263, 3-(Morpholin-4-ylcarbonyl)-1-{1-[2-(1H-pyrazol-1-yl)ethyl]piperidin-3-yl}-1,4-dihydrothiochromeno[4,3-c]pyrazole 5,5-dioxide], the IC50 stood at 169 nM. Still for that read-out and setting: the value for `Nc1ccc2c(c1)S(=O)(=O)Cc1c(C(=O)N3CCOCC3)nn(-c3ccccc3)c1-2` [Example 165, 3-(Morpholin-4-ylcarbonyl)-1-phenyl-1,4-dihydrothiochromeno[4,3-c]pyrazol-7-amine 5,5-dioxide] was 1130 nM. On the same count and under the same terms, to `O=C(c1nn(-c2ccccc2)c2c1CS(=O)(=O)c1cc(C(F)(F)F)ccc1-2)N1CCOCC1` [Example 158, 3-(Morpholin-4-ylcarbonyl)-1-phenyl-7-(trifluoromethyl)-1,4-dihydrothiochromeno[4,3-c]pyrazole 5,5-dioxide] belongs 3060 nM. Consider `O=C(c1nn(-c2cccc(-c3ccncc3)c2)c2c1CS(=O)(=O)c1ccccc1-2)N1CCOCC1` [Example 187, 3-(Morpholin-4-ylcarbonyl)-1-(3-pyridin-4-ylphenyl)-1,4-dihydrothiochromeno[4,3-c]pyrazole 5,5-dioxide], for which the IC50 was determined as 193 nM. `O=C(c1nn(-c2cccc(Cl)c2)c2c1CS(=O)(=O)c1ccccc1-2)N1CCOCC1` [Example 26, 1-(3-chlorophenyl)-3-(morpholin-4-ylcarbonyl)-1,4-dihydrothiochromeno[4,3-c]pyrazole 5,5-dioxide]: the IC50 came to 440 nM.

With `COCCN1CCCC(n2nc(C(=O)N3CCOCC3)c3c2-c2ccccc2S(=O)(=O)C3)C1` (stereo not drawn) [Example 133, 1-[1-(2-Methoxyethyl)piperidin-3-yl]-3-(morpholin-4-ylcarbonyl)-1,4-dihydrothiochromeno[4,3-c]pyrazole 5,5-dioxide], the IC50 was found to be 188 nM. On the same count and under the same terms, to `O=C(c1nn(-c2cccc(Nc3ccccc3)c2)c2c1CS(=O)(=O)c1ccccc1-2)N1CCOCC1` [Example 166, {3-[3-(Morpholin-4-ylcarbonyl)-5,5-dioxidothiochromeno[4,3-c]pyrazol-1 (4H)-yl]phenyl}phenylamine] belongs 2700 nM; to `O=C(c1nn(C2CCOC2)c2c1CS(=O)(=O)c1c(F)cccc1-2)N1CCOCC1` (stereo not drawn) [Example 365, 6-Fluoro-3-(morpholin-4-ylcarbonyl)-1-(tetrahydrofuran-3-yl)-1,4-dihydrothiochromeno[4,3-c]pyrazole 5,5-dioxide], 353 nM; to `O=C(c1nn(C2CCCN(c3cccnc3)C2)c2c1CS(=O)(=O)c1ccccc1-2)N1CCOCC1` (single isomer, unassigned) [Example 484, 3-(morpholin-4-ylcarbonyl)-1-[1-pyridin-3-ylpiperidin-3-yl]-1,4-dihydrothiochromeno[4,3-c]pyrazole 5,5-dioxide], 48 nM. `CS(=O)(=O)N1CCCC(n2nc(C(=O)N3CCOCC3)c3c2-c2ccccc2S(=O)(=O)C3)C1` (stereo not drawn) [Example 135, 1[1-(Methylsulfonyl)piperidin-3-yl]-3-(morpholin-4-ylcarbonyl)-1,4-dihydrothiochromeno[4,3-c]pyrazole 5,5-dioxide]: the IC50 was 994 nM. In the case of `O=C(c1nn([C@@H]2CCCN(CC3CCOCC3)C2)c2c1CS(=O)(=O)c1ncccc1-2)N1CCOCC1` (single isomer, unassigned) [Example 371, 3-(morpholin-4-ylcarbonyl)-1-[1-(tetrahydro-2H-pyran-4-ylmethyl)piperidin-3-yl]-1,4-dihydropyrazolo[3′,4′:4,5]thiopyrano[2,3-b]pyridine 5,5-dioxide], the IC50 worked out at 830 nM.

Turning to `COCc1ccc(-n2nc(C(=O)N3CCOCC3)c3c2-c2ccccc2S(=O)(=O)C3)cc1` [Example 278, 1-[4-(Methoxymethyl)phenyl]-3-(morpholin-4-ylcarbonyl)-1,4-dihydrothiochromeno[4,3-c]pyrazole 5,5-dioxide], the IC50 is 667 nM. On the same count and under the same terms, to `CC(C)(C)C1CCC(n2nc(C(=O)N3CCOCC3)c3c2-c2ccccc2S(=O)(=O)C3)CC1` (stereo not drawn) [Example 94, 1-(4-tert-Butylcyclohexyl)-3-(morpholin-4-ylcarbonyl)-1,4-dihydrothiochromeno[4,3-c]pyrazole 5,5-dioxide] belongs 4120 nM; to `O=C(c1nn([C@H]2CCCN(CCN3CC[C@@H](F)C3)C2)c2c1CS(=O)(=O)c1ccccc1-2)N1CCOCC1` (single isomer, unassigned) [Example 364, 1-(1-{2-[3-fluoropyrrolidin-1-yl]ethyl}piperidin-3-yl)-3-(morpholin-4-ylcarbonyl)-1,4-dihydrothiochromeno[4,3-c]pyrazole 5,5-dioxide], 14 nM. Consider `O=C(c1nn(-c2ccccc2)c2c1NS(=O)(=O)c1ccccc1-2)N1CCOCC1` [Example 489, 3-(Morpholin-4-ylcarbonyl)-1-phenyl-1,4-dihydropyrazolo[4,3-c][1,2]benzothiazine 5,5-dioxide], for which the IC50 stood at 5500 nM. In the case of `O=C(c1ccc2c(c1)-c1c(c(C(=O)N3CCOCC3)nn1-c1ccccc1)CS2(=O)=O)N1CCCCC1` [Example 117, 3-(Morpholin-4-ylcarbonyl)-1-phenyl-8-(piperidin-1-ylcarbonyl)-1,4-dihydrothiochromeno[4,3-c]pyrazole 5,5-dioxide], the IC50 was determined as 3410 nM. As for `NCCCC1c2c(C(=O)N3CCOCC3)nn(-c3ccccc3)c2-c2ccccc2S1(=O)=O` (stereo not drawn) [Example 140, 3-[3-(Morpholin-4-ylcarbonyl)-5,5-dioxido-1-phenyl-1,4-dihydrothiochromeno[4,3-c]pyrazol-4-yl]propan-1-amine], the IC50 was found to be 4520 nM. On to `O=C(c1nn([C@H]2CCN(C3CCOCC3)C2)c2c1CS(=O)(=O)c1ccccc1-2)N1CCOCC1` (single isomer, unassigned) [Example 402], for which the IC50 is 1440 nM. With `O=C(c1cccc(-n2nc(C(=O)N3CCOCC3)c3c2-c2ccccc2S(=O)(=O)C3)c1)N1CCCCC1` [Example 125, 3-(Morpholin-4-ylcarbonyl)-1-[3-(piperidin-1-ylcarbonyl)phenyl]-1,4-dihydrothiochromeno[4,3-c]pyrazole 5,5-dioxide], the IC50 is 182 nM. Consider `CN1CCN(C(=O)c2cccc(-n3nc(C(=O)N4CCOCC4)c4c3-c3ccccc3S(=O)(=O)C4)c2)CC1` [Example 124, 1-{3-[(4-Methylpiperazin-1-yl)carbonyl]phenyl}-3-(morpholin-4-ylcarbonyl)-1,4-dihydrothiochromeno[4,3-c]pyrazole 5,5-dioxide], for which the IC50 was found to be 253 nM. For the compound `O=C(c1nn(-c2ccccc2)c2c1CS(=O)(=O)c1ccccc1-2)N1CCOC(CO)C1` (stereo not drawn) [Example 333, {4-[(5,5-Dioxido-1-phenyl-1,4-dihydrothiochromeno[4,3-c]pyrazol-3-yl)carbonyl]morpholin-2-yl}methanol], the IC50 was found to be 6530 nM.

Still in this assay, the particulars now being: inhibition at 20 μM.
Regarding `COc1cc(OC)cc(-n2nc(C(=O)N3CCOCC3)c3c2-c2ccccc2S(=O)(=O)C3)c1` [Example 67], the “Best potency measured on the 4 PI3K isoforms, % inh @20 μM” value turned out to be 54% inh @20 μM. On the same count and under the same terms, to `O=C(c1nn(-c2ccccc2)c2c1CS(=O)(=O)c1c(CN3CCCCC3)cccc1-2)N1CCOCC1` [Example 319] belongs 33% inh @20 μM.
